Source: US5281603A, “Angiotensin II receptor blocking 2,3,6 substituted quinazolinones” (American Cyanamid Company, priority 1993, dated 1994)
“And” between values parts separate entries of the source, which are not always exact repeats. Equal entries are not always repeated.

Tested on: Angiotensin II vasopressor response
Experiment: AII challenge: antagonism of angiotensin II vasopressor response in conscious spontaneously hypertensive rats
Type: in vivo, rat (Male Okamoto-Aoki SHR)
Conditions: 10 mg/kg I.V.; for % Inhibition / Average Change: SHR n=2; for Response After AII / Change / Control Before AII: individual SHR
From the text: By administering a compound of this invention to a rat, and then challenging with angiotensin II, a blockage of the vasopressor response is realized.
Conscious Male Okamoto-Aoki SHR, 16-20 weeks old, weighing approximately 330 g are purchased from Charles River Labs (Wilmington, Mass.). Conscious rats are restrained in a supine position with elastic tape. The area at the base of the tail is locally anesthetized by subcutaneous infiltration with 2% procaine. The ventral caudal artery and vein are isolated, and a cannula made of polyethylene (PE) 10-20 tubing (fused together by heat) is passed into the lower abdominal aorta and vena cava, respectively. The cannula is secured, heparinized (1,000 I.U./ml), sealed and the wound is closed. The animals are placed in plastic restraining cages in an upright position. The cannula is attached to a Statham P23Db pressure transducer, and pulsatile blood pressure is recorded to 10-15 minutes with a Gould Brush recorder. (Chan et al., (Drug Development Res., 18:75-94, 1989).
Angiotensin II (human sequence, Sigma Chem. Co., St. […] Then a test compound, vehicle or a known angiotensin II antagonist is administered i.v., i.p. or orally to each set of rats. The two doses of angiotensin II are given to each rat again at 30, 60, 90, 120, 180, 240 and 300 minutes post dosing the compound or vehicle. The vasopressor response of angiotensin II is measured for the increase in systolic blood pressure in mmHg. The percentage of antagonism or blockade of the vasopressor response of angiotensin II by a compound is calculated using the vasopressor response (increase in systolic blood pressure) of angiotensin II of each rat predosing the compound as 100%. A compound is considered active if at 30 mg/kg i.v. it antagonized at least 50% of the response.

[1] = AII 0.05 mcg/kg IV, 30 min post dose
[2] = AII 0.05 mcg/kg IV, 60 min post dose
[3] = AII 0.05 mcg/kg IV, 90 min post dose
[4] = AII 0.05 mcg/kg IV, 120 min post dose
[5] = AII 0.05 mcg/kg IV, 180 min post dose
[6] = AII 0.05 mcg/kg IV, 240 min post dose
[7] = AII 0.05 mcg/kg IV, 300 min post dose
[8] = AII 0.1 mcg/kg IV, 30 min post dose
[9] = AII 0.1 mcg/kg IV, 60 min post dose
[10] = AII 0.1 mcg/kg IV, 90 min post dose
[11] = AII 0.1 mcg/kg IV, 120 min post dose
[12] = AII 0.1 mcg/kg IV, 180 min post dose
[13] = AII 0.1 mcg/kg IV, 240 min post dose
[14] = AII 0.1 mcg/kg IV, 300 min post dose
[15] = AII 0.05 mcg/kg IV, 30 min post dose, 10 mg/kg
[16] = AII 0.05 mcg/kg IV, 60 min post dose, 10 mg/kg
[17] = AII 0.05 mcg/kg IV, 90 min post dose, 10 mg/kg
[18] = AII 0.05 mcg/kg IV, 120 min post dose, 10 mg/kg
[19] = AII 0.05 mcg/kg IV, 180 min post dose, 10 mg/kg
[20] = AII 0.05 mcg/kg IV, 240 min post dose, 10 mg/kg
[21] = AII 0.05 mcg/kg IV, 300 min post dose, 10 mg/kg
[22] = AII 0.1 mcg/kg IV, 30 min post dose, 10 mg/kg
[23] = AII 0.1 mcg/kg IV, 60 min post dose, 10 mg/kg
[24] = AII 0.1 mcg/kg IV, 90 min post dose, 10 mg/kg
[25] = AII 0.1 mcg/kg IV, 120 min post dose, 10 mg/kg
[26] = AII 0.1 mcg/kg IV, 180 min post dose, 10 mg/kg
[27] = AII 0.1 mcg/kg IV, 240 min post dose, 10 mg/kg
[28] = AII 0.1 mcg/kg IV, 300 min post dose, 10 mg/kg

In the case of CCCCc1nc2ccc(C3=NN[C@H]4C(=O)N(C)C(=O)[C@@H]34)cc2c(=O)n1Cc1ccc(-c2ccccc2-c2nnn[nH]2)cc1 (relative stereo) [Example 7], the “% Inhibition” value [1] is reported as 57%, the “Average Change” value [1] is reported as 20 mmHg and the “% Inhibition” value [2] is reported as 57%. The “Average Change” value [2] was 20 mmHg, the “% Inhibition” value [3] was 57% and the “Average Change” value [3] was 20 mmHg. The “% Inhibition” value [4] was 62%, the “Average Change” value [4] was 17.5 mmHg and the “% Inhibition” value [5] was 67%. The “Average Change” value [5] was 15 mmHg, the “% Inhibition” value [6] was 62% and the “Average Change” value [6] was 17.5 mmHg. For the same compound, the “% Inhibition” value [7] was 24%, the “Average Change” value [7] was 35 mmHg and the “% Inhibition” value [8] was 50%. The “Average Change” value [8] was 27.5 mmHg, the “% Inhibition” value [9] was 58% and the “Average Change” value [9] was 23 mmHg. The “% Inhibition” value [10] was 59%, the “Average Change” value [10] was 22.5 mmHg and the “% Inhibition” value [11] was 67%. For the same compound, the “Average Change” value [11] was 18 mmHg, the “% Inhibition” value [12] was 50% and the “Average Change” value [12] was 27.5 mmHg. The “% Inhibition” value [13] was 55%, the “Average Change” value [13] was 25 mmHg and the “% Inhibition” value [14] was 54%. For the same compound, the “Average Change” value [14] was 25.5 mmHg, the “Response After AII” value [1] was 240 mmHg and the Change [15] was 15 mmHg and 25 mmHg. For the same compound, the “Control Before AII” value [15] was 150 mmHg and 215 mmHg, the “Response After AII” value [15] was 165 mmHg and the Change [16] was 15 mmHg and 25 mmHg. For the same compound, the “Control Before AII” value [16] was 145 mmHg and 215 mmHg, the “Response After AII” value [16] was 160 mmHg and 240 mmHg and the “Response After AII” value [3] was 230 mmHg. The Change [17] was 40 mmHg and 0 mmHg, the “Control Before AII” value [17] was 135 mmHg and 230 mmHg and the “Response After AII” value [17] was 175 mmHg. The “Response After AII” value [4] was 160 mmHg, the Change [18] was 20 mmHg and 15 mmHg and the “Control Before AII” value [18] was 140 mmHg and 200 mmHg. For the same compound, the “Response After AII” value [18] was 215 mmHg, the Change [19] was 25 mmHg and 5 mmHg and the “Control Before AII” value [19] was 140 mmHg and 205 mmHg. The “Response After AII” value [19] was 165 mmHg and 210 mmHg, the Change [20] was 25 mmHg and 10 mmHg and the “Control Before AII” value [20] was 135 mmHg and 190 mmHg. The “Response After AII” value [20] was 160 mmHg and 200 mmHg, the Change [7] was 35 mmHg and the “Control Before AII” value [21] was 140 mmHg and 190 mmHg. For the same compound, the “Response After AII” value [21] was 175 mmHg and 225 mmHg, the Change [22] was 20 mmHg and 35 mmHg and the “Control Before AII” value [22] was 140 mmHg and 215 mmHg. The “Response After AII” value [22] was 160 mmHg and 250 mmHg, the Change [23] was 15 mmHg and 31 mmHg and the “Control Before AII” value [23] was 145 mmHg and 224 mmHg. For the same compound, the “Response After AII” value [23] was 160 mmHg and 255 mmHg, the Change [24] was 25 mmHg and 20 mmHg and the “Control Before AII” value [24] was 140 mmHg and 215 mmHg. The “Response After AII” value [24] was 165 mmHg and 235 mmHg, the “Response After AII” value [11] was 160 mmHg and the Change [25] was 25 mmHg and 11 mmHg. The “Control Before AII” value [25] was 135 mmHg and 214 mmHg, the “Response After AII” value [25] was 225 mmHg and the Change [26] was 35 mmHg and 20 mmHg. The “Control Before AII” value [26] was 140 mmHg and 195 mmHg, the “Response After AII” value [26] was 175 mmHg and 215 mmHg and the Change [27] was 35 mmHg and 15 mmHg. The “Control Before AII” value [27] was 140 mmHg and 190 mmHg, the “Response After AII” value [27] was 175 mmHg and 205 mmHg and the Change [28] was 40 mmHg and 11 mmHg. For the same compound, the “Control Before AII” value [28] was 140 mmHg and 205 mmHg and the “Response After AII” value [28] was 180 mmHg and 216 mmHg.
